≈ marks a conversion by molar mass, not a printed value.
Key:
Type in all cases: cell-based
[1] = test system: Staphylococcus aureus (ATCC 29213); assay: MIC susceptibility test, microdilution with MTT readout; conditions: Staphylococcus aureus ATCC29213
Procedure: (§1) Evaluation of vancomycin analogs is performed using in vitro susceptibility tests and a time-kill assay. [NCCL Standard, 1993] In susceptibility tests, five strains of bacteria, two of the most important: Staphylococcus aureus and Enterococcus faecalis (both susceptible and resistant strains), and Bacillus cereus are chosen and bacteria viability remaining in each well is evaluated using a colorimetric assay based on the tetrazolium salt 3-(4,5-dimethyl-2-thiazolyl)-2,5-diphenyl-2H tetrazolium bromide (MTT) and minimum inhibitory concentration (MIC) values are determined as μg/mL. [Mosmann, T. (1983); Damour, O., et al. (1992); Mikami, Y., et al. (1994)] This assay gives susceptibility information quickly, efficiently, and clearly.
(§2) All strains [Bacillus cereus (ATCC® 11778), Staphylococcus aureus (ATCC® 29213), Methicillin resistant Staphylococcus aureus (ATCC® 33591), Enterococcus faecalis (ATCC® 29212), and gentamicin, streptmycin, vancomycin resistant Enterococcus faecalis (ATCC® 51299), are purchased from REMEL (Lenexa, Kans.).
(§3) MICs are determined by the microdilution method using 96-well microplates. Samples are suspended with Cation Adjusted (20 to 25 mg of Ca^2+/mL and 10 to […] of Mg^2+) Mueller-Hinton broth (Difco Laboratories, Detroit, Mich.) and are two-fold diluted from 5 μg/mL to […] on microplates (12 step dilution). To each well, which contained 100 μL of cell suspension (10^6 CFU/mL), 100 μL of antibiotic solution is added and the plates are incubated at 37° C. for 24 h. 50 μL of MTT solution (1 mg/mL) is added to each well, then the plates are incubated under the same conditions (incubation time; 30 min for Bacillus cereus, Staphylococcus aureus, and Methicillin resistant Staphylococcus aureus; 2 hours for Enterococcus faecalis and Gentamicin, Streptmycin, Vancomycin Enterococcus faecalis). MTT is a yellow tetrazolium salt that is reduced by mitochondrial enzymes in viable cells to an insoluble blue formazan product. MIC values are evaluated by observing the lowest drug concentration to inhibit bacteria growth.

[2] = test system: Methicillin resistant Staphylococcus aureus (ATCC 33591); assay: as above; conditions: Staphylococcus aureus ATCC3359, Methicillin resistance
Procedure: as §1, §2, §3

[3] = test system: Enterococcus faecalis (ATCC 29212); assay: as above; conditions: Enterococcus faecalis ATCC29212
Procedure: as §1, §2, §3

[4] = test system: Bacillus cereus (ATCC 11778); assay: as above; conditions: Bacillus ceres ATCC11778
Procedure: as §1, §2, §3

[5] = test system: gentamicin, streptmycin, vancomycin resistant Enterococcus faecalis (ATCC 51299); assay: microbe, parasite or virus in culture; conditions: Enterococcus faecalis ATCC51299, vancomycin resistance
Procedure: as §1, §2, §3

SMILES	MIC SA [1] [µg/mL]	MIC MRSA [2]	MIC EF [3]	MIC BC [4]	MIC VREF [5]
CNC(=S)NCC1OC(Oc2c3cc4cc2Oc2ccc(cc2Cl)C(O)C2NC(=O)C(NC(=O)C4NC(=O)C(CC(N)=O)NC(=O)C(NC(=O)C(CC(C)C)NC)C(O)c4ccc(c(Cl)c4)O3)c3ccc(O)c(c3)-c3c(O)cc(O)cc3C(C(=O)O)NC2=O)C(OC2CC(C)(N)C(O)C(C)O2)C(O)C1O (centres unmarked) [XXXII, Glucose-C6-N-thiocarbonyl Methylamino Vancomycin]	1.9 (≈ 1.25 µM)	2.5 µg/mL (≈ 1.64 µM)	1.3 µg/mL (≈ 0.854 µM)	1.9 µg/mL (≈ 1.25 µM)	5.0 µg/mL (≈ 3.29 µM)
CCCCCCCCCCCCCC(=O)NCC1OC(Oc2c3cc4cc2Oc2ccc(cc2Cl)C(O)C2NC(=O)C(NC(=O)C4NC(=O)C(CC(N)=O)NC(=O)C(NC(=O)C(CC(C)C)NC)C(O)c4ccc(c(Cl)c4)O3)c3ccc(O)c(c3)-c3c(O)cc(O)cc3C(C(=O)O)NC2=O)C(OC2CC(C)(N)C(O)C(C)O2)C(O)C1O (centres unmarked) [XXXV, Glucose-C6-N-myristoyl Vancomycin]	2.5 (≈ 1.51 µM)	1.3 µg/mL (≈ 0.784 µM)	0.015 µg/mL (≈ 0.00904 µM)	3.8 µg/mL (≈ 2.29 µM)	0.16 µg/mL (≈ 0.0965 µM)
CNC(CC(C)C)C(=O)NC1C(=O)NC(CC(N)=O)C(=O)NC2C(=O)NC3C(=O)NC(C(=O)NC(C(=O)O)c4cc(O)cc(O)c4-c4cc3ccc4O)C(O)c3ccc(c(Cl)c3)Oc3cc2cc(c3OC2OC(CSCC(=O)O)C(O)C(O)C2OC2CC(C)(N)C(O)C(C)O2)Oc2ccc(cc2Cl)C1O (centres unmarked) [LXXI, Glucose-C6-thioacetato Vancomycin]	5.0 (≈ 3.28 µM)	5.0< μg/mL	5.0< μg/mL	5.0< μg/mL	5.0< μg/mL
CCCCCCCCCCNCC1OC(Oc2c3cc4cc2Oc2ccc(cc2Cl)C(O)C2NC(=O)C(NC(=O)C4NC(=O)C(CC(N)=O)NC(=O)C(NC(=O)C(CC(C)C)NC)C(O)c4ccc(c(Cl)c4)O3)c3ccc(O)c(c3)-c3c(O)cc(O)cc3C(C(=O)O)NC2=O)C(OC2CC(C)(N)C(O)C(C)O2)C(O)C1O (centres unmarked) [XXXI, Glucose-C6-N-decyl Vancomycin]	1.3 (≈ 0.818 µM)	1.3 µg/mL (≈ 0.818 µM)	0.32 µg/mL (≈ 0.201 µM)	1.3 µg/mL (≈ 0.818 µM)	2.5 µg/mL (≈ 1.57 µM)
CNC(CC(C)C)C(=O)NC1C(=O)NC(CC(N)=O)C(=O)NC2C(=O)NC3C(=O)NC(C(=O)NC(C(=O)O)c4cc(O)cc(O)c4-c4cc3ccc4O)C(O)c3ccc(c(Cl)c3)Oc3cc2cc(c3OC2OC(CNC(=O)c3ccccc3I)C(O)C(O)C2OC2CC(C)(N)C(O)C(C)O2)Oc2ccc(cc2Cl)C1O (centres unmarked) [XXXVI, Glucose-C6-N-2-iodobenzoyl Vancomycin]	1.3 (≈ 0.775 µM)	2.5 µg/mL (≈ 1.49 µM)	1.3 µg/mL (≈ 0.775 µM)	1.3 µg/mL (≈ 0.775 µM)	2.5 µg/mL (≈ 1.49 µM)
CNC(CC(C)C)C(=O)NC1C(=O)NC(CC(N)=O)C(=O)NC2C(=O)NC3C(=O)NC(C(=O)NC(C(=O)O)c4cc(O)cc(O)c4-c4cc3ccc4O)C(O)c3ccc(c(Cl)c3)Oc3cc2cc(c3OC2OC(CNC(=O)c3cccs3)C(O)C(O)C2OC2CC(C)(N)C(O)C(C)O2)Oc2ccc(cc2Cl)C1O (centres unmarked) [XXXIII, Glucose-C6-N-(thiophene-2-carboxamide) Vancomycin]	1.3 (≈ 0.834 µM)	2.5 µg/mL (≈ 1.6 µM)	1.3 µg/mL (≈ 0.834 µM)	1.3 µg/mL (≈ 0.834 µM)	5.0 µg/mL (≈ 3.21 µM)
CNC(CC(C)C)C(=O)NC1C(=O)NC(CC(N)=O)C(=O)NC2C(=O)NC3C(=O)NC(C(=O)NC(C(=O)O)c4cc(O)cc(O)c4-c4cc3ccc4O)C(O)c3ccc(c(Cl)c3)Oc3cc2cc(c3OC2OC(CSC(C)C)C(O)C(O)C2OC2CC(C)(N)C(O)C(C)O2)Oc2ccc(cc2Cl)C1O (centres unmarked) [LIII, Glucose-C6-thiopropianato Vancomycin]	2.5 (≈ 1.66 µM)	2.5 µg/mL (≈ 1.66 µM)	2.5 µg/mL (≈ 1.66 µM)	1.3 µg/mL (≈ 0.862 µM)	5.0< μg/mL

— patent US6710168B1, “Glycopeptide antibiotics, combinatorial libraries of glycopeptide antibiotics and methods of producing same” (The Trustees of the University of Princeton, priority 1999, dated 2004)
